Experimental findings from US20260219259A1, “METHOD FOR QUANTIFYING INSULIN SECRETION CAPACITY IN HUMAN CELL” (JUNTENDO EDUCATIONAL FOUNDATION, priority 2023, published 2026) are described below.

The test system of the assay is Huh7 cells. As to the kind of experiment: Insulin production in Huh7 cells expressing Ngn3, Mafa and Pdx1, insulin quantified using HISCL HI-1000. It counts as cell-based, human. The conditions noted are these: concentration of from 1 to 30 nM; FIG. 8. The procedure:
The recombinant SW872 cells that express 3 genes Ngn3, Mafa, and Pdx1 used here were expanded by long-term culture, and the resulting cells were subjected to the same experiment as above. […] Accordingly, a liver-derived cell line Huh7 was infected with Sendai virus vectors (TOKIWA-Bio Inc.) that express 3 genes Ngn3, Mafa, and Pdx1, cultured in a differentiation medium for β cells for 24 hours, and then transfected with expression plasmids of human KLF9 gene and human UCN3 gene using Lipofectamine 3000, and the amount of insulin produced was measured 5 days later. The expression plasmids of human KLF9 gene and human UCN3 gene were prepared by PCR and In-Fusion ligation reaction in the same manner as the method described in Example 3(1) using primers shown in SEQ ID NOs: 65 and 66 and SEQ ID NOS: 69 and 70. pEBMulti-Hyg was used as a negative control, and pEBMulti-hIns was used as a positive control. […] Insulin was quantified using HISCL HI-1000 (Sysmex Corp.). […]
Human SW872 cells that produce hIns-HiBiT5 were infected with Sendai virus vectors that express 3 genes Ngn3, Mafa, and Pdx1 in the same manner as in Example 4, and cultured in a differentiation medium for β cells for 24 hours. […] The method for quantifying insulin was performed in the same manner as in Example 4. […]

Consider `CCCC(CCC)C(=O)O` [valproic acid], for which the “insulin production from the Huh7 cells” value was “promoted insulin production”.
